A short description of series [1]: Inhibition of human CYP1B1 expressed in HEK293 cells assessed as potentiation of cisplatin-induced cytotoxicity by measuring cisplatin EC50 at 0.018 uM by MTT assay (Rvb = 61 +/- 8 uM). (Tetrazolium assays rely on reduction of a dye to a coloured formazan, in cell work by metabolically active cells.)
The nature of series [2]: Inhibition of human CYP1B1 expressed in human A2780 cells assessed as potentiation of cisplatin-induced cytotoxicity by measuring cisplatin EC50 at 0.018 uM by MTT assay (Rvb = 40 +/- 4.9 uM).
Series [3] is described as follows: Inhibition of human CYP1B1 expressed in HEK293 cells assessed as potentiation of cisplatin-induced cytotoxicity by measuring cisplatin EC50 at 0.02 uM by MTT assay (Rvb = 61 +/- 8 uM).
A short description of series [4]: Inhibition of human CYP1B1 expressed in human A2780 cells assessed as potentiation of cisplatin-induced cytotoxicity by measuring cisplatin EC50 at 0.02 uM by MTT assay (Rvb = 40 +/- 4.9 uM).
Series [5] can be described thus: Inhibition of human CYP1B1 expressed in HEK293 cells assessed as potentiation of cisplatin-induced cytotoxicity by measuring cisplatin EC50 at 0.016 uM by MTT assay (Rvb = 61 +/- 8 uM).
A short description of series [6]: Inhibition of human CYP1B1 expressed in human A2780 cells assessed as potentiation of cisplatin-induced cytotoxicity by measuring cisplatin EC50 at 0.016 uM by MTT assay (Rvb = 40 +/- 4.9 uM).

For `COc1ccc2cc(C(=O)/C=C/c3cccnc3)ccc2c1`, the figures for the EC50 in series [1] and in series [2] were 8.3 µM and 3.3 µM, respectively.
For `O=C(/C=C/c1ccc2ccccc2c1)c1cccnc1`, the EC50 in series [3] came to 1 µM; in series [4], 0.5 µM.
Regarding `O=c1cc(-c2ccccc2)oc2c1ccc1ccccc12`, the EC50 in series [5] came out at 40 µM; in series [6] it was 35 µM.

As usually defined, the EC50 is the midpoint of the concentration-response curve.

Values taken from BindingDB's records for doi:10.1016/j.ejmech.2017.02.016 (De Montfort University, 2017).
